Consider 18 compounds from PubChem BioAssay (NCI).

Molecules are shown by their SMILES. Values joined by “and” are separate entries in the source; they are usually repeats but may differ in a detail not shown here. Equal values may be shown once.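 Exposure lasted 48 hours, with cells grown in 96-well plates and compounds tested at five concentrations. Abbreviation: GI50, concentration required for 50% inhibition of growth. At the TGI there is no net growth.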 Where a SMILES comes first, the peptide text is derived from it. [ ]: non-standard residue; d: D form. The star is where a group is joined. ξ: configuration not given here. ξF = NC(Cc1ccccc1)C(=O)O; Cbz = O=C(OCc1ccccc1)*; Aib = CC(C)(N)C(=O)O; NHNH2 = NN* Some results are limits rather than exact numbers.

What all share (assay): growth of human tumour cells (NCI), 48 h
Assay [1] has as its system EKVX NSCLC.
Assay [2] concerns HS 578T breast.
For assay [3], the system named is SW-620 colon.
Assay [4] has as its system UACC-257 melanoma.
The subject of assay [5] is SK-MEL-2 melanoma.
In assay [6] the test system is TK-10 renal.
Assay [7] deals with SF-295 CNS.
Assay [8] has as its system SN12C renal.
For assay [9], the system named is MALME-3M melanoma.
In assay [10] the test system is SK-MEL-5 melanoma.
The subject of assay [11] is CCRF-CEM leukemia.
The subject of assay [12] is MDA-MB-435.
For assay [13], the system named is RXF 393 renal.
In assay [14] the test system is UO-31 renal.
Assay [15] deals with A549 NSCLC.
The subject of assay [16] is HCT-116 colon.

`CC#CC(O)(C(=O)OCCCN(C)C)C1CCCCC1` (centres undefined): the TGI in [1], in assay [2], in assay [3], in assay [4], in [5] and in assay [6] was more than 100 µM in each case. Also, the TGI in [7], in assay [8], in [9], in assay [10], in assay [11] and in assay [12] was more than 100 µM each time. For the same compound, the TGI in assay [13], in assay [14], in assay [15] and in assay [16] was more than 100 µM throughout.

In the case of `CC(=O)Nc1c(S(=O)(=O)c2ccccc2)c(C)c(C)n1CCN(C)C`, the TGI in [1], in assay [2], in assay [3], in assay [4], in assay [5] and in [6] was more than 100 µM each time. Moreover, the TGI in assay [7], in assay [8], in assay [9], in assay [10], in [11] and in [12] was more than 100 µM in each case. In addition, the TGI in assay [13], in assay [14], in assay [15] and in assay [16] was more than 100 µM each time.

`COC(=O)C(N)CCCC(N)C(=O)NC(C)C(=O)NC(CCC(=O)NCCNCCNc1c2ccccc2nc2cccc([N+](=O)[O-])c12)C(N)=O` (centres undefined): the TGI was 32.9 µM in [1]; 38.8 µM in assay [2]; 47.3 µM in [3]; 70.5 µM in [4]; 30.6 µM in assay [5]; more than 94.3 µM in assay [6]. In addition, the TGI in [7] was more than 100 µM; in assay [8], 39.5 µM; in [9], 24.8 µM; in [10], 18.1 µM; in [11], more than 50.9 µM; in assay [12], 20.1 µM. Further, the TGI in assay [13] was 28.5 µM; in assay [14] it was 59.4 µM; in assay [15] it was more than 43.6 µM; in assay [16], 24.5 µM.

In the case of `CCCCNC(=O)c1cc2c(cc1Cl)Sc1nccn1S2(=O)=O`, the TGI in assay [1], in assay [2], in assay [3], in assay [4], in [5] and in assay [6] was more than 100 µM each time. Besides, the TGI in assay [7] was more than 100 µM; in [8], more than 100 µM; in assay [9], more than 100 µM; in assay [10], 63.7 µM; in assay [11] it was more than 100 µM; in assay [12], more than 100 µM. Besides, the TGI in assay [13], in [14], in assay [15] and in assay [16] was more than 100 µM each time.

As to `Cc1cc(C)n(CC(Cn2nc(C)cc2C)=C(/C(Cl)=C(/Cl)Nc2ccc([N+](=O)[O-])cc2)[N+](=O)[O-])n1`, the TGI in assay [1] is 13.8 µM; in [2] it was 33.2 µM; in assay [3], 17.7 µM; in assay [4] it was 12.3 µM; in [5], 11.8 µM; in assay [6] it was 12.5 µM. Further, the TGI was determined as 20.9 µM in [7]; 17.6 µM in assay [8]; 13.4 µM in [9]; 4.97 µM in assay [10]; 2.48 µM in assay [11]; 8.95 µM in [12]. For the same compound, the TGI in assay [13] stood at 12.3 µM; in assay [14], 6.76 µM; in assay [15] it was 13.3 µM; in [16] it was 14.3 µM.

With `NC(Cc1ccc(OCc2ccccc2)cn1)C(=O)O` (centres undefined), the TGI in assay [1], in [2], in assay [3], in assay [4], in assay [6] and in assay [7] was more than 100 µM in each case. Further, the TGI in [8], in assay [9], in [10], in assay [11], in assay [12] and in assay [13] was more than 100 µM throughout. The TGI in assay [14], in assay [15] and in [16] was more than 100 µM throughout.

With `O=C(O)CN1C=C(C(=O)c2cc3ccccc3n2S(=O)(=O)c2ccccc2)CCC1`, the TGI in [1], in assay [2], in [3], in assay [4], in assay [5] and in assay [6] was more than 100 µM throughout. Further, the TGI in assay [7] was more than 100 µM; in assay [9], more than 100 µM; in [10], 71.8 µM; in assay [11], more than 100 µM; in [12], more than 100 µM; in assay [13] it was more than 100 µM. Further, the TGI in [14], in assay [15] and in assay [16] was more than 100 µM in each case.

In the case of `O=C1/C(=C\Oc2ccc(F)cc2)N2CCC1CC2`, the TGI in [1], in assay [2], in assay [4], in assay [5], in assay [6] and in [7] was more than 100 µM throughout. The TGI in assay [8], in assay [9], in assay [10], in assay [11], in [12] and in assay [13] was more than 100 µM each time. Further, the TGI in assay [14], in [15] and in assay [16] was more than 100 µM in each case.

In the case of `O=c1[nH]c(=O)n(COCc2ccccc2)c2ccsc12`, the TGI in [1], in [2], in assay [3], in [4], in [5] and in assay [6] was more than 100 µM each time. The TGI in assay [8], in assay [9], in assay [10], in [11], in assay [12] and in [13] was more than 100 µM throughout. Besides, the TGI in assay [15] and in assay [16] was more than 100 µM throughout.

Turning to `O=[N+]([O-])c1cccc2nc3ccccc3c(NCCCn3ccnc3[N+](=O)[O-])c12`, the GI50 in assay [1] is 76.4 µM; in [2], 0.0109 µM; in assay [5], 0.022 µM; in [11], 0.0218 µM. Moreover, the TGI in assay [2] is 0.0899 µM and 0.0415 µM; in assay [3], 0.103 µM; in [4], 0.0208 µM and 0.0207 µM; in assay [6], 0.0489 µM and 0.0392 µM; in assay [7] it was 0.214 µM and 0.0415 µM; in [8] it was 0.0722 µM and 0.0198 µM. The TGI is 0.00107 µM in assay [9]; 0.000231 µM in assay [12]; 0.000768 µM in assay [13]; 0.00595 µM and 0.038 µM in [14]; 0.00198 µM and 0.0188 µM in [16].

As for `O=C1C[C@H](c2ccccc2)O[C@@H](c2ccccc2)C1`, the TGI in [1], in [2], in [3], in assay [4], in assay [5] and in assay [7] was more than 100 µM in each case. For the same compound, the TGI in [8], in assay [9], in assay [10], in assay [11], in assay [12] and in assay [13] was more than 100 µM throughout. Besides, the TGI in assay [14], in assay [15] and in [16] was more than 100 µM each time.

Take `COC(=O)C(NC(=O)C(CC(=O)OC(C)(C)C)NC(=O)OC(C)(C)C)C(O)c1ccccc1` (centres undefined): the TGI in assay [1], in assay [2], in assay [3], in assay [4], in assay [5] and in assay [6] was more than 100 µM each time. Further, the TGI in assay [8], in [9], in assay [10], in assay [11], in assay [12] and in assay [13] was more than 100 µM each time. Further, the TGI in assay [14], in assay [15] and in assay [16] was more than 100 µM each time.

On to `O=C1NC(N2CCOCC2)=N/C1=C\c1ccc(Cl)cc1`, for which the TGI in [1], in assay [2], in assay [3], in [4], in assay [5] and in assay [6] was more than 100 µM throughout. Also, the TGI in [7], in [8], in assay [9], in assay [11], in [12] and in assay [13] was more than 100 µM throughout. Moreover, the TGI in assay [14], in [15] and in [16] was more than 100 µM throughout.

Regarding `CC(C)=CCC[C@]1(C)C=Cc2c(O)c3c(c(CC=C(C)C)c2O1)O[C@]12C(=C[C@@H]4CC1C(C)(C)O[C@@]2(C/C=C(/C)C(=O)O)C4=O)C3=O`, the TGI came to 4.39 µM in [1]; 9.68 µM in assay [2]; 2.89 µM in assay [3]; 6.8 µM in assay [4]; 4.13 µM in assay [5]; 2.47 µM in assay [6]. Moreover, the TGI in [7] is 10 µM; in assay [8], 4.69 µM; in assay [9], 3.76 µM; in assay [11], 1.45 µM; in assay [12], 3.72 µM; in assay [13] it was 2.34 µM. Besides, the TGI came out at 3.73 µM in assay [14], 3.71 µM in [15] and 1.5 µM in assay [16].

As for `CC(C)(NC(=O)OCc1ccccc1)C(=O)NC(Cc1ccccc1)C(=O)NN` (centres undefined) (Cbz-[Aib]-[ξF]-NHNH2), the TGI in assay [1], in [2], in assay [3], in assay [4], in [5] and in assay [6] was more than 100 µM each time. Besides, the TGI in [7], in assay [8], in assay [9], in [10], in assay [11] and in [12] was more than 100 µM in each case. The TGI in [13], in assay [14] and in assay [15] was more than 100 µM in each case.

As for `O=c1oc2ccccc2nc1/C=C(\O)c1ccc(Cl)cc1`, the TGI in assay [1], in [2], in assay [4], in assay [5], in assay [6] and in [7] was more than 100 µM in each case. For the same compound, the TGI in assay [8], in assay [9], in [10], in assay [11], in assay [12] and in assay [13] was more than 100 µM in each case. In addition, the TGI in assay [14], in assay [15] and in [16] was more than 100 µM throughout.

As for `Cc1cn([C@@H]2C[C@@H]2CO)c(=O)[nH]c1=O`, the TGI in [1], in [2], in assay [3], in assay [4], in assay [5] and in assay [6] was more than 100 µM throughout. The TGI in [8], in [9], in [10], in assay [11], in [12] and in [13] was more than 100 µM in each case. The TGI in [14], in [15] and in assay [16] was more than 100 µM in each case.

Regarding `CCOC(=O)c1nc2ccc(C(F)(F)F)cc2nc1NCc1ccc(OC)cc1`, the TGI in assay [1], in [2], in assay [3], in assay [4], in assay [5] and in assay [6] was more than 100 µM throughout. For the same compound, the TGI in assay [7], in assay [9], in assay [10], in assay [11], in [12] and in assay [13] was more than 100 µM in each case. Besides, the TGI in assay [14], in [15] and in [16] was more than 100 µM throughout.
